# Measured values published in ChEMBL document CHEMBL1155858, “Derivatives of (3S)-N-(biphenyl-2-ylmethyl)pyrrolidin-3-amine as selective noradrenaline reuptake inhibitors: Reducing P-gp mediated efflux by modulation of H-bond acceptor capacity” (Bioorg Med Chem Lett, 2008).
# What was measured:
# [1] = biological target: T1, Sodium-dependent serotonin transporter (Homo sapiens, UniProt P31645); assay: Inhibition of [3H]citalopram uptake at human 5HTT expressed in HEK293 cells by SPA; format: cell-based
# [2] = Ratio of permeability from basolateral to apical side over apical to basolateral side of MDCK cells expressing MDR1 gene; conditions: dog
# [3] = Apparent permeability from apical to basolateral side of the MDCK cells expressing MDR1 gene; format: ADME, cell-based, Canis lupus familiaris; conditions: dog
# [4] = biological target: T2, Sodium-dependent dopamine transporter (Homo sapiens, UniProt Q01959); assay: Inhibition of [3H]dopamine reuptake at human DAT expressed in HEK293 cells by SPA; format: cell-based
# [5] = Apparent permeability from basolateral to apical side of the MDCK cells expressing MDR1 gene; format: ADME, cell-based, Canis lupus familiaris; conditions: dog
# [6] = biological target: Cytochrome P450 2D6 (Homo sapiens, UniProt P10635); assay: Inhibition of CYP2D6; format: ADME
# [7] = biological target: Sodium-dependent noradrenaline transporter (Homo sapiens, UniProt P23975); assay: Inhibition of [3H]nisoxetine reuptake at human NET expressed in HEK293 cells by SPA; format: cell-based
# [8] = Metabolic stability in human liver microsomes assessed as intrinsic clearance; format: ADME, Microsome
# [9] = Dissociation constant, pKa of the compound; format: physicochemical
# [10] = biological target: T3, Cytochrome P450 1A2 (Homo sapiens, UniProt P05177); assay: Inhibition of CYP1A2; format: ADME
# T3 sequence (P05177 whole entry): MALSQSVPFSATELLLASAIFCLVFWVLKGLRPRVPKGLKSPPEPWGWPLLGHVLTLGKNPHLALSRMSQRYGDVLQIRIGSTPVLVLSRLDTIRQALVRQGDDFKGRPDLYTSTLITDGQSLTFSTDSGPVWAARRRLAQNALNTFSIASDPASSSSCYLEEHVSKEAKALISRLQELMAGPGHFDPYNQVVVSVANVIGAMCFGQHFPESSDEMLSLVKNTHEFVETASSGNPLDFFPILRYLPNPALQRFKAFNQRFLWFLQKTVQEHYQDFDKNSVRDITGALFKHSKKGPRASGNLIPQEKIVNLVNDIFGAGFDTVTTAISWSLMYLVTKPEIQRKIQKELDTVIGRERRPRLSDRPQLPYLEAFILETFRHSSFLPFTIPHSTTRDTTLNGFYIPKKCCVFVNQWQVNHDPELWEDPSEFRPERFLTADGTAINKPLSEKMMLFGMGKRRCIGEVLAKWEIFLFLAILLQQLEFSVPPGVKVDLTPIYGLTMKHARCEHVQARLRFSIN
# [11] = organism: Homo sapiens; assay: Selectivity for human NET over human DAT
# [12] = biological target: Cytochrome P450 3A4 (Homo sapiens, UniProt P08684); assay: Inhibition of CYP3A4; format: ADME
# [13] = Inhibition of sodium channel site 2
# [14] = biological target: Cytochrome P450 2C9 (Homo sapiens, UniProt P11712); assay: Inhibition of CYP2C9; format: ADME
# [15] = Inhibition of L type calcium channel
# [16] = test system: Hepatocyte; assay: Metabolic stability in human hepatocytes assessed as intrinsic clearance; format: ADME, cell-based, Liver
# [17] = Distribution coefficient, log D at pH 7.4; format: physicochemical; conditions: octanol/water
# [18] = biological target: Voltage-gated inwardly rectifying potassium channel KCNH2 (Homo sapiens, UniProt Q12809); assay: Displacement of [3H]dofetilide from human ERG channel
# [19] = organism: Homo sapiens; assay: Selectivity for human NET over human SERT
# [20] = biological target: CYP3A4 (Homo sapiens, UniProt P08684); assay: Inhibition of CYP3A4 at 3 uM; format: ADME
# [21] = biological target: CYP2D6 (Homo sapiens, UniProt P10635); assay: Inhibition of CYP2D6 at 3 uM; format: ADME
# [22] = test system: Liver microsomes; assay: Metabolic stability in human liver microsomes; format: ADME, Microsome
# [23] = biological target: CYP1A2 (Homo sapiens, UniProt P05177); assay: Inhibition of CYP1A2 at 3 uM; format: ADME
# [24] = biological target: T1, Sodium-dependent serotonin transporter
# Description: Inhibition of [3H]5HT uptake at human SERT expressed in HEK293 cells
# [25] = biological target: T2, Sodium-dependent dopamine transporter
# Description: Inhibition of [3H]dopamine uptake at human DAT expressed in HEK293 cells
# [26] = biological target: CYP2C9 (Homo sapiens, UniProt P11712); assay: Inhibition of CYP2C9 at 3 uM; format: ADME
# CYP2C9, sequence (P11712 whole entry): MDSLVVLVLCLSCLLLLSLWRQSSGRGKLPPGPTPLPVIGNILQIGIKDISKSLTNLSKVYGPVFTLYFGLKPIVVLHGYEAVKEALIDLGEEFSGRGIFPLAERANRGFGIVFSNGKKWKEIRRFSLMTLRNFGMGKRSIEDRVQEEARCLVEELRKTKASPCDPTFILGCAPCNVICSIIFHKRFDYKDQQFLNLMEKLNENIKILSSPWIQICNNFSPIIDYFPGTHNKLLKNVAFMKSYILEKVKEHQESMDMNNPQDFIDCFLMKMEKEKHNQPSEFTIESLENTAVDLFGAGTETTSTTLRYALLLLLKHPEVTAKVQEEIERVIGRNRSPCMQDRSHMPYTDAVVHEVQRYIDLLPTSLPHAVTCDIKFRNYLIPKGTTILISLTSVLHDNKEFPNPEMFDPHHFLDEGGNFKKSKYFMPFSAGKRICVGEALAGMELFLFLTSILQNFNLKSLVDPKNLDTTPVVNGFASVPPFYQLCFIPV
# Cytochrome P450 2D6, sequence (P10635 whole entry): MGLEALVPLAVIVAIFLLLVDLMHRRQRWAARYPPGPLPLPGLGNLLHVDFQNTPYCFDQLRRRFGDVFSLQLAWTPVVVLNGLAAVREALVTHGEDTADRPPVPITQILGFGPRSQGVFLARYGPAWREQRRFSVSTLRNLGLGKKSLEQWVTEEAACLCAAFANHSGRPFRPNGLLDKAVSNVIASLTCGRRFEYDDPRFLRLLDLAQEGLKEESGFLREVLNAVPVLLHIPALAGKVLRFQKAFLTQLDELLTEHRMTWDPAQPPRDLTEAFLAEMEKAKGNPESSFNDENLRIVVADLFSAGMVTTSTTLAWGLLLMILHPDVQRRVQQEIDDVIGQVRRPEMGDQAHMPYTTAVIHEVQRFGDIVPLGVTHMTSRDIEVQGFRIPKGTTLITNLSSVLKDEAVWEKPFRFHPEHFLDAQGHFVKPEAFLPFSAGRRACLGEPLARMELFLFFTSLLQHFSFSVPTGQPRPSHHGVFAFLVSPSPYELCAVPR
# Sodium-dependent noradrenaline transporter, sequence (P23975 whole entry): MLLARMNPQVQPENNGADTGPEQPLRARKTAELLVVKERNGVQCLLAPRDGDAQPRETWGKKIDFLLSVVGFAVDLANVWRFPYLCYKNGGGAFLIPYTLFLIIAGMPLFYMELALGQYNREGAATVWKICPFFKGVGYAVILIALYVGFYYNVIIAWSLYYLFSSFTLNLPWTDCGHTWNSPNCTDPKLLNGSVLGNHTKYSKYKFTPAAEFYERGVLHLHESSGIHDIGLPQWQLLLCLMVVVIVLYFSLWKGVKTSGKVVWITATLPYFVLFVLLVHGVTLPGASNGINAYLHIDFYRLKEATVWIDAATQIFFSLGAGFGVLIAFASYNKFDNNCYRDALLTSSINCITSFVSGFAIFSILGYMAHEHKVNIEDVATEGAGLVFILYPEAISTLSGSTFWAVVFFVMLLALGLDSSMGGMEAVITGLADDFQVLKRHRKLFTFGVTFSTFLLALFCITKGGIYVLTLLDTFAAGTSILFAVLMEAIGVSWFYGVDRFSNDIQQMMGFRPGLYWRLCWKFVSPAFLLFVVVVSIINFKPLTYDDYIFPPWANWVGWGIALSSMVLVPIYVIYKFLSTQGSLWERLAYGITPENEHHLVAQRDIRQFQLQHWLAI
# T1 sequence (P31645 whole entry): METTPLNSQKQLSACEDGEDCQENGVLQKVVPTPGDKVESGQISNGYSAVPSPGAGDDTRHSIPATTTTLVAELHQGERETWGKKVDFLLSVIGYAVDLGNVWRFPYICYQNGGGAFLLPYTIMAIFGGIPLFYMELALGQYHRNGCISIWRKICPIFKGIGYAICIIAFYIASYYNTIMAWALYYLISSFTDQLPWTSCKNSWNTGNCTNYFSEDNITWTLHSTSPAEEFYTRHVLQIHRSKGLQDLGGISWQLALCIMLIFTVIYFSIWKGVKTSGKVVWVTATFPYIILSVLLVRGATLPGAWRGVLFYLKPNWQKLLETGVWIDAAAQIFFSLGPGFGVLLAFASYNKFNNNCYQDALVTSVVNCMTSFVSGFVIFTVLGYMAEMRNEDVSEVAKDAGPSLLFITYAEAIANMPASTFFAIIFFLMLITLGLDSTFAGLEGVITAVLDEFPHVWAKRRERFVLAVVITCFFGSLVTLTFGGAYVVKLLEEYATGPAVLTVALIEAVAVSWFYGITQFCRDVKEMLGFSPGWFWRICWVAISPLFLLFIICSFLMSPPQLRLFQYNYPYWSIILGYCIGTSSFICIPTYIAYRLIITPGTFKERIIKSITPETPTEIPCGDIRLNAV
# T2 sequence (Q01959 whole entry): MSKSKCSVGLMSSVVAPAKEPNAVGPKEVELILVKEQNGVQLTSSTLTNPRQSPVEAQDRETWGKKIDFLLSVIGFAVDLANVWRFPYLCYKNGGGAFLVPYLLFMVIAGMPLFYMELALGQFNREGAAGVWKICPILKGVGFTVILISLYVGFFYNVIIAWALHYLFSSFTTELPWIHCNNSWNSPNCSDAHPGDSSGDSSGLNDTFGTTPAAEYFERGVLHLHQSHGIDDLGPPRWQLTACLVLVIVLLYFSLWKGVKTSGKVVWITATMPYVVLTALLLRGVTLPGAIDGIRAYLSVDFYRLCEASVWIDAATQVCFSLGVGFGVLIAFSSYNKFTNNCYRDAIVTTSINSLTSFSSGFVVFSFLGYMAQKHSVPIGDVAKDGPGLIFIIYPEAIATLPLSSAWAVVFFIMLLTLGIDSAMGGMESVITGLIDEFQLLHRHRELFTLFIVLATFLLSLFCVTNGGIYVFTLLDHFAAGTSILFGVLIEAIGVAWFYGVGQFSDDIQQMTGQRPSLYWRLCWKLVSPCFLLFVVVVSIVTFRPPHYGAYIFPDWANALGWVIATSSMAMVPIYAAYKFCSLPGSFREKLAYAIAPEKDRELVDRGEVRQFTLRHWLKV
# Cytochrome P450 2C9, sequence (P11712 whole entry): as the sequence (P11712 whole entry) above
# Voltage-gated inwardly rectifying potassium channel KCNH2, sequence (Q12809 whole entry): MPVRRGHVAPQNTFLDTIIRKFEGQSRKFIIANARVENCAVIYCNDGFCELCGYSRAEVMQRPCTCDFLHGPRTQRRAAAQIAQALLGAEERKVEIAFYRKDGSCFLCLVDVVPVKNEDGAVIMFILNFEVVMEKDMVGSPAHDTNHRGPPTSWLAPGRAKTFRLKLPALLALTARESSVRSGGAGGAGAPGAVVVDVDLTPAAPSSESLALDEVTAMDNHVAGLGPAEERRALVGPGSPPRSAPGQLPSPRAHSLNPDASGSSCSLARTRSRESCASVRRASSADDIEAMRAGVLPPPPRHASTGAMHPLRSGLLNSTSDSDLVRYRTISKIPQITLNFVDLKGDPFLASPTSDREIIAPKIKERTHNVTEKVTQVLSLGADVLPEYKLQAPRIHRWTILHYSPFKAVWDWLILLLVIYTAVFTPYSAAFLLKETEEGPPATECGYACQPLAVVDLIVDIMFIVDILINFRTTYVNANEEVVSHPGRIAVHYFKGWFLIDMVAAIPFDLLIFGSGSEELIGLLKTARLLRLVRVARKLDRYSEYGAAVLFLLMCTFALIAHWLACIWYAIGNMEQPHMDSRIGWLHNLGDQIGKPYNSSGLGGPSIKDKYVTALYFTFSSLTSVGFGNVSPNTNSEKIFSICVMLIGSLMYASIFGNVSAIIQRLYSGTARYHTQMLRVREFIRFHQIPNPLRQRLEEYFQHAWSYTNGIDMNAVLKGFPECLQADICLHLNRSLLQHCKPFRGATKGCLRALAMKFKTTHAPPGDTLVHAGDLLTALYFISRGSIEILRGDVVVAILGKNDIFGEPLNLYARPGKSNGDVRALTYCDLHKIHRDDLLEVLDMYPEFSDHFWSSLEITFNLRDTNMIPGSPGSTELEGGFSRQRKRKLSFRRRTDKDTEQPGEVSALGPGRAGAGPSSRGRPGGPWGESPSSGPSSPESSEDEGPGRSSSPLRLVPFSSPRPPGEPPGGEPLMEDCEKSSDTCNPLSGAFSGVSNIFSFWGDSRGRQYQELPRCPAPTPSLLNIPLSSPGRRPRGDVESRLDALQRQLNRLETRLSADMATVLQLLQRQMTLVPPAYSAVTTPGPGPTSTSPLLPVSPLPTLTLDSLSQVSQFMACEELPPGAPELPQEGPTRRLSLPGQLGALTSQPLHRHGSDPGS
# Cytochrome P450 3A4, sequence (P08684 whole entry): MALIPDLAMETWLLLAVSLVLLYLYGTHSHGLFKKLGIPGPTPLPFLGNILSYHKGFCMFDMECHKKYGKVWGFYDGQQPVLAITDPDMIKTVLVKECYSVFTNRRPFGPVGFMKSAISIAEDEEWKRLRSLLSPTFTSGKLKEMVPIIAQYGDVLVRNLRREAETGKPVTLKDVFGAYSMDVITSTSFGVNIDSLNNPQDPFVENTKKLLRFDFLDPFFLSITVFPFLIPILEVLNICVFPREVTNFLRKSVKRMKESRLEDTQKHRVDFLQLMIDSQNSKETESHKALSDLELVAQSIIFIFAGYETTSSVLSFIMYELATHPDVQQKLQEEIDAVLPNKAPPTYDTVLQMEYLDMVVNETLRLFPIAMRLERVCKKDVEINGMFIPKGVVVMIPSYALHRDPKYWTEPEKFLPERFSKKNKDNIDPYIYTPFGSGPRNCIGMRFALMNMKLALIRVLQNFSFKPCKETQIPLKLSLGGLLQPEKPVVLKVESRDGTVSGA
SMILES,Ki [1],Ki [4],IC50 [6],Ki [7],microsomal CLint [8],other results
CN(C)S(=O)(=O)N(Cc1ccccc1-c1ccccc1)[C@H]1CCNC1,3330 nM,2690 nM,0.84 µM,8 nM,16 µL/min/mg,efflux ratio [2]: 4; Papp A→B [3]: 17 ×10⁻⁶ cm/s; Papp B→A [5]: 68 ×10⁻⁶ cm/s
CS(=O)(=O)N(Cc1ccccc1-c1ccccc1)[C@H]1CCNC1,4120 nM,2670 nM,3.1 µM,5 nM,7 µL/min/mg,pKa [9]: 8.9; IC50 [10]: > 3 µM; Ratio Ki [11]: > 100; efflux ratio [2]: 5.1; IC50 [12]: > 3 µM; Ki [13]: 1900 nM; Papp A→B [3]: 10 ×10⁻⁶ cm/s; Papp B→A [5]: 51 ×10⁻⁶ cm/s; IC50 [14]: > 3 µM; Ki [15]: 1900 nM; CL [16]: < 5 µL/min/mg; logD [17]: 0.6; Ki [18]: > 2700 nM; Ratio Ki [19]: > 100
O=S(=O)(N(Cc1ccccc1-c1ccccc1)[C@H]1CCNC1)C(F)(F)F,5280 nM,2080 nM,–,30 nM,–,–
CC(C)C(=O)N(Cc1ccccc1C(F)(F)F)[C@H]1CCNC1,133 nM,–,–,63 nM,< 7 µL/min/mg,–
CC(C)C(=O)N(Cc1ccccc1C(C)C)[C@H]1CCNC1,544 nM,3410 nM,–,70 nM,< 7 µL/min/mg,–
CCOC(=O)N(Cc1ccccc1C(C)C)[C@H]1CCNC1,764 nM,3340 nM,–,49 nM,–,–
CC(C)C(=O)N(Cc1cccc(Cl)c1Cl)[C@H]1CCNC1,–,–,> 3 µM,–,–,inhibition at 3 µM [20]: < 40%; inhibition at 3 µM [21]: < 10%; t1/2 [22]: > 120 min; inhibition at 3 µM [23]: < 40%; IC50 [24]: 12 nM; IC50 [25]: 1250 nM; inhibition at 3 µM [26]: < 40%
CS(=O)(=O)N(Cc1ccccc1-c1ccccc1)[C@@H]1CCNC1,5350 nM,2390 nM,5.36 µM,29 nM,< 7 µL/min/mg,–
CCOC(=O)N(Cc1ccccc1C(F)(F)F)[C@H]1CCNC1,427 nM,3210 nM,–,46 nM,–,–
c1ccc(-c2ccccc2CN(C2CCOCC2)[C@H]2CCNC2)cc1,–,–,–,–,–,t1/2 [22]: > 120 min

# Now from value to compound, other results behind:
Ki [1],Ki [4],IC50 [6],Ki [7],microsomal CLint [8],SMILES,other results
4440 nM,3190 nM,10.6 µM,18 nM,< 7 µL/min/mg,COC(=O)N(Cc1ccccc1-c1ccccc1)[C@H]1CCNC1,–
5620 nM,2760 nM,1.89 µM,5 nM,< 7 µL/min/mg,CCS(=O)(=O)N(Cc1ccccc1-c1ccccc1)[C@H]1CCNC1,–
415 nM,–,–,30 nM,9 µL/min/mg,CC(C)CC(=O)N(Cc1ccccc1-c1ccccc1)[C@H]1CCNC1,–
787 nM,2010 nM,–,14 nM,–,CC(C)OC(=O)N(Cc1ccccc1-c1ccccc1)[C@H]1CCNC1,–
2680 nM,–,–,30 nM,< 7 µL/min/mg,CCC(=O)N(Cc1ccccc1-c1ccccc1)[C@H]1CCNC1,–
5810 nM,–,–,124 nM,< 7 µL/min/mg,CC(=O)N(Cc1ccccc1-c1ccccc1)[C@H]1CCNC1,–
960 nM,3740 nM,1.86 µM,6 nM,< 7 µL/min/mg,CC(C)C(=O)N(Cc1ccccc1-c1ccccc1)[C@H]1CCNC1,pKa [9]: 9.4; IC50 [10]: > 3 µM; efflux ratio [2]: 6.1; IC50 [12]: > 3 µM; Ki [13]: 1200 nM; Papp A→B [3]: 11 ×10⁻⁶ cm/s; Papp B→A [5]: 68 ×10⁻⁶ cm/s; IC50 [14]: > 3 µM; Ki [15]: > 10000 nM; logD [17]: 0.8; Ki [18]: 2840 nM
5010 nM,2970 nM,–,53 nM,–,CN(C)C(=O)N(Cc1ccccc1-c1ccccc1)[C@H]1CCNC1,–
730 nM,2610 nM,–,25 nM,< 7 µL/min/mg,CCCC(=O)N(Cc1ccccc1-c1ccccc1)[C@H]1CCNC1,–
